According to patent US11654193B2, “Cancer treatment combinations” (The Regents of the University of California, priority 2016, dated 2023):
Entries after “also recorded” stand apart in the source; their conditions may differ. Like-named read-outs stand apart in the source and are kept apart here.

Tests used:
[1] = system: ROR-1×TCL1 leukemia cells; test: ROR-1×TCL1 leukemia adoptive transfer in immunodeficient Rag2-/-γc-/- mice; format: in vivo; details: day 25; for numbers of splenic ROR-1×TCL1 leukemia cells, dose dependence: ibrutinib daily 15, 5, 1.67 mg/kg or single dose UC-961/cirmtuzumab 10, 3, 1 mg/kg
Protocol: ROR-1×TCL1 leukemia adoptive transfer study. […] ROR-1×TCL1 leukemia B cells (CD5B220^lowROR-1^+) were isolated from the spleen, enriched via density gradient centrifugation, suspended in sterile PBS, injected i.v. into Rag2^−/−γc^−/− recipient mice at 2×10^4 cells per animal. Samples used for transplantation were verified by flow cytometry to be >95% leukemia B cells. For dose dependent therapy of UC-961, recipient mice received either no treatment, or one dose i.v. injections of 10 mg/kg, 3 mg/kg and 1 mg/kg of UC-961 on day 1. […] All mice were sacrificed on day 25 and single-cell suspensions of splenocytes were purged of red blood cells by hypotonic lysis in ammonium-chloride-potassium (ACK) lysis solution, washed, suspended in 2% (wt/vol) BSA (Sigma) in PBS (pH=7.4) and stained for surface expression of CD3 (17A2), CD5 (53-7.3), B220 (RA3-6B2), and ROR-1 (4A5) using optimized concentrations of fluorochrome-conjugated mAbs. Cells were examined by four-color, multiparameter flow cytometry using a dual-laser FACSCalibur (BD) and the data were analyzed using FlowJo software (TreeStar). The total number of leukemia cells per spleen was calculated by determining the percent of CD5B220^lowROR-1^+ cells of total lymphocytes by flow cytometry and multiplying this number by the total spleen cell count.
(§1) ROR-1×TCL1 Leukemia Adoptive Transfer Study.

[2] = system: ROR-1×TCL1 leukemia cells; test: ROR-1×TCL1 leukemia adoptive transfer in immunocompetent ROR-1-Tg mice; format: in vivo; details: cirmtuzumab 10 mg/kg weekly i.v. and/or ibrutinib 5 mg/kg daily via gavage, after 28 days
Source text: as §1
After 28 days, the animals were sacrificed and the spleen of each animal was examined.

[3] = system: natural killer cells, macrophages or neutrophils; details: cited from earlier work; for cell-mediated mechanisms induced by anti-CD20 antibodies rituximab, ofatumumab or obinutuzumab: purified systems or whole blood assays
[4] = system: cell lines or chronic lymphocytic leukemia samples; details: cited from earlier work
[5] = single dose UC-961/cirmtuzumab 1 mg/kg and/or ibrutinib 5 mg/kg daily

Compound: C=CC(=O)N1CCC[C@@H](n2nc(-c3ccc(Oc4ccccc4)cc3)c3c(N)ncnc32)C1 [ibrutinib, 1-[(3R)-3-[4-Amino-3-(4-phenoxyphenyl)-1H-pyrazolo[3,4-d]pyrimidin-1-yl]piperidin-1-yl]prop-2-en-1-one]
- numbers of splenic ROR-1×TCL1 leukemia cells, dose dependence [1]: Dose-dependent inhibitory effect
- numbers of splenic ROR-1×TCL1 leukemia cells, dose dependence ([1]; listed as Ibrutinib): inhibited the expansion of ROR-1×TCL1 leukemia cells in a dose-dependent manner; also recorded: reduced the numbers of splenic leukemia cells in a dose-dependent manner
- percentage and total number of ROR-1×TCL1 leukemia cells per spleen [1, 5]: significantly lower
- spleen size [1, 5]: significantly smaller spleens
- mean proportion and leukemia cell number in the spleen [2]: significantly lower
- spleen size [2]: significantly smaller spleens
- cell-mediated mechanisms induced by anti-CD20 antibodies rituximab, ofatumumab or obinutuzumab [3]: strongly inhibited all cell-mediated mechanisms
- cell-mediated mechanisms induced by anti-CD20 antibodies rituximab, ofatumumab or obinutuzumab ([3]; listed as Ibrutinib): interfered with the activity of the CD20 antibodies
- complement activation or complement-mediated lysis ([4]; pre-treatment with ibrutinib): did not inhibit complement activation or complement-mediated lysis
- direct cell death mediated by anti-CD20 antibodies ([4]; pretreatment with ibrutinib for 1 hour): did not increase direct cell death

Compound: CC[C@H](Nc1ncnc2[nH]cnc12)c1nc2cccc(F)c2c(=O)n1-c1ccccc1 [idelalisib, 5-Fluoro-3-phenyl-2-[(15)-1-(7H-purin-6-ylamino)propyl]-4(3H)-quinazolinone]
- effect on immune cell-mediated mechanisms induced by anti-CD20 antibodies ([3]; 10 μM, compared with ibrutinib at the same concentration): weaker than those observed with ibrutinib
- cell-mediated mechanisms induced by anti-CD20 antibodies rituximab, ofatumumab or obinutuzumab [3]: similarly inhibits the immune cell-mediated mechanisms
